Data set [1] relates to human ovarian tumour cell line A2780. As to the kind of experiment: growth (tetrazolium dye-based microtitration) cytotoxicity assay, A2780. It counts as cell-based. The settings on record: for IC50: Homo sapiens, A2780, cisplatin-sensitive line, 24 hours drug exposure, 3 day recovery, mean±SEM of triplicate plates. The method, then: (§1) Compounds were tested in a growth assay with a 24 hours drug exposure and a 3 day recovery period. Cell lines used were human ovarian tumour cell line A2780 and 2 Cisplatin resistant derivatives cell lines A27080/cp70 and MCP1. IC50 is the concentration of drug required to reduce the surviving cell number to 50% of that of the control untreated cells. Results are from one experiment and are the mean±SEM of the triplicate plates.
(§2) DIP cytotoxicity was determined by a tetrazolium dye-based microtitration assay. DNA affinity measurements of DIPs were undertaken using Isothermal Titration Calorimetry (ITC).

The subject of data set [2] is Cisplatin resistant cell line A2780/cp70. The data set can be described thus: growth (tetrazolium dye-based microtitration) cytotoxicity assay, A2780/cp70. It counts as cell-based, human. The settings on record: for IC50: Homo sapiens, A2780/CP70, cisplatin-resistant line, 24 hours drug exposure, 3 day recovery, mean±SEM of triplicate plates; for RF1: rapport of the IC50 between A2780 and A2780/cp70, the lower RF the better. The method, then: as §1, §2

Data set [3] relates to Cisplatin resistant cell line MCP1. The data set can be described thus: growth (tetrazolium dye-based microtitration) cytotoxicity assay, MCP1. Type of data set: cell-based, human. The settings on record: for IC50: Homo sapiens, cisplatin-resistant line, 24 hours drug exposure, 3 day recovery, mean±SEM of triplicate plates; for RF2: rapport of the IC50 between A2780 and MCP1, the lower RF the better. As for the experimental part: as §1, §2

As for `[Br-].[Br-].[Br-].c1ccc2c(c1)c1[n+](c3ccccc23)CCN1[C@H]1C[C@@H](N2CC[n+]3c2c2ccccc2c2ccccc23)C[C@@H](N2CC[n+]3c2c2ccccc2c2ccccc23)C1` [AP3-42], the IC50 (usually the concentration that inhibits the measured activity by half) in data set [1] is 8.02 ± 1.14 µM; in data set [2], 7.29 ± 0.38 µM; in data set [3], 9.44 ± 0.58 µM. In addition, in data set [2], the RF1 is listed as 0.9. Moreover, in data set [3], the RF2 amounted to 1.2.

On to `COc1ccc(CN2CC[n+]3c2c2ccccc2c2ccccc23)cc1.[Br-]` [AP3-56, 1-(4-Methoxy-benzyl)-2,3-dihydro-1H-imidazo[1,2-f]phenanthridinium bromide], for which the IC50 in data set [1] was found to be 1.53 ± 0.09 µM; in data set [2], 1.56 ± 0.06 µM; in data set [3], 1.06 ± 0.06 µM. Besides, in data set [2], the RF1 stood at 1.0. Moreover, the RF2 in data set [3] is 0.7.

In data set [1], `[Br-].c1ccc2c(c1)c1[n+](c3ccccc23)CCN1C1CC1` [AP3-80] gave an IC50 of 5.07 ± 1.06 µM. In addition, in data set [2], the IC50 worked out at 4.54 ± 0.7 µM and the RF1 stood at 0.9. Moreover, in data set [3], the IC50 amounted to 5.68 ± 0.86 µM and the RF2 was found to be 1.1.

In turn, `[Br-].c1ccc2c(c1)c[n+](CCN1CCCCC1)c1ccccc21` [AP4-20] had an IC50 in data set [1] of 9.77 ± 1.04 µM. In data set [2], this compound gave an IC50 of 16.5 ± 0.8 µM and an RF1 of 1.7. Further, in data set [3], the IC50 is 6.3 ± 0.09 µM and the RF2 was 0.6.

Take `Br.Br.c1ccc2c(c1)c[n+](CCN1CCN(CC[n+]3cc4ccccc4c4ccccc43)CC1)c1ccccc21` [AP4-48]: the figures for the IC50 in data set [1], in data set [2] and in data set [3] were 18.4 ± 1.23 µM, 16.8 ± 0.54 µM and 11.7 ± 1.51 µM, respectively. Also, the RF1 in data set [2] came to 0.9. The compound also registered an RF2 in data set [3] of 0.6.

The compound `[Br-].[Br-].[Br-].c1ccc2c(c1)c[n+](CCN1CCCN(CC[n+]3cc4ccccc4c4ccccc43)CCCN(CC[n+]3cc4ccccc4c4ccccc43)CCC1)c1ccccc21` [AP4-55] showed an IC50 in data set [1] of 2.28 ± 0.23 µM. Besides, the “cytotoxicity (in words)” value in data set [1] (overall statement across A2780, A2780/cp70 and MCP1) was “good cytotoxicity”. In data set [2], this compound gave an IC50 of 1.59 ± 0.15 µM and an RF1 of 0.7. In data set [3], this compound came in with an IC50 of 1.13 ± 0.12 µM and an RF2 of 0.5.

Consider `O=C(CN1CC[n+]2c1c1ccccc1c1ccccc12)N1CCN(C(=O)CN2CC[n+]3c2c2ccccc2c2ccccc23)CC1.[Br-].[Br-]` [AP8-66], for which the IC50 in data set [1] came to 11.7 ± 1.1 µM. In data set [2], this compound yielded an IC50 of 15.6 ± 2.1 µM and an RF1 of 1.3. In data set [3], this compound came in with an IC50 of 6.84 ± 0.89 µM and an RF2 of 0.6.

In data set [1], `[Br-].[Br-].c1ccc2c(c1)c1[n+](c3ccccc23)CCN1CCN1CCN(CCN2CC[n+]3c2c2ccccc2c2ccccc23)CC1` [AP9-5] returned an IC50 of 18.3 ± 2.8 µM. Also, in data set [2], the half-maximal inhibitory concentration (IC50) was found to be 5.65 ± 0.2 µM and the RF1 amounted to 0.3. In data set [3], this compound gave an IC50 of 3.94 ± 0.32 µM and an RF2 of 0.2.

The compound `[Br-].c1ccc(CN2CC[n+]3c2c2ccccc2c2ccccc23)cc1` [AP9-45] showed a 50% inhibitory concentration (IC50) in data set [1] of 2.32 ± 0.33 µM. In data set [2], half-maximal inhibition (IC50) required 2.26 ± 0.23 µM and the RF1 worked out at 1.0. In data set [3], this compound gave an IC50 of 1.29 ± 0.11 µM and an RF2 of 0.6.

`Br.Br.Br.O=C(CN1CC[n+]2c1c1ccccc1c1ccccc12)N1CCCN(C(=O)CN2CC[n+]3c2c2ccccc2c2ccccc23)CCCN(C(=O)CN2CC[n+]3c2c2ccccc2c2ccccc23)CCC1` [AP9-82]: the IC50 in data set [1] came out at 15.6 ± 2.76 µM; in data set [2], 4.57 ± 0.18 µM; in data set [3] it was 7.59 ± 0.32 µM. Moreover, in data set [2], the RF1 worked out at 0.3. Also, in data set [3], the RF2 stood at 0.5.

On to `Br.Br.Br.Br.c1ccc2c(c1)c1[n+](c3ccccc23)CCN1CC[N+]12CC[N+](CCN3CC[n+]4c3c3ccccc3c3ccccc34)(CC1)CC2` [AP11-36], for which the IC50 in data set [1] worked out at 2.34 ± 0.25 µM. In data set [2], this compound returned an IC50 of 3.4 ± 0.23 µM and an RF1 of 1.5. In data set [3], this compound displayed an IC50 of 3.07 ± 0.52 µM and an RF2 of 1.3.
